Results published in patent EP0082498A2, “Beta-lactam compounds and process for the preparation thereof” (SAGAMI CHEMICAL RESEARCH CENTER, priority 1981, dated 1983).
Values after ≈ are worked out from the molar mass of the structure shown. Counter-ions that a name gives are not always drawn. Like-named read-outs stand apart in the source and are kept apart here.

Tests used:
Assay in all cases: Antibacterial activity, minimum inhibition concentration (MIC)
Assay type in all cases: cell-based
[1] = system: Proteus morganii IFO 3848; conditions: for MIC: Morganella morganii
Method: (§1) Antibacterial activities of the compounds according to this invention, which had been prepared in the preceding Examples, were measured according to the method prescribed by The Committee of Amendment of "The method for measurement of the minimum inhibition concentration", The Chemotherapy Association, Japan (See Chemotherapy, Vol. 29, No. 1, pp. 76 ~ 79 (1981)).
(§2) The test results are shown in terms of the minimum inhibition concentration (MIC) (unit: µg/mℓ) in the following Tables 1 to 4.

[2] = system: Salmonella typhimrium 901
Method: as §1, §2

[3] = system: Staphylococcus aureus MS 353; conditions: for MIC: Staphylococcus aureus
Method: as §1, §2

[4] = system: Escherichia coli NIHJ-JC-2
Method: as §1, §2

[5] = system: Klebsiella pneumoniae PCI-602; conditions: PCI602, Table 3
Method: as §1, §2

[6] = system: Proteus mirabillis IFO 3849; conditions: Table 3
Method: as §1, §2

[7] = system: Salmonella typhimurium IID-971; conditions: Salmonella enterica, Table 3; Salmonella typhimurium IID-971; read-out: minimum inhibition concentration (MIC)
Method: as §1, §2

[8] = system: Staphylococcus aureus FDA 209 PJC-1
Method: as §1, §2

[9] = system: Pseudomonas aeruginosa NCTC 10490; conditions: NCTC10490, Table 2
Method: as §1, §2

[10] = IFO3848, Table 4, Proteus morganii IFO 3848, read-out: minimum inhibition concentration (MIC)
[11] = Table 4, Salmonella typhimrium 901, read-out: minimum inhibition concentration (MIC)
[12] = MS353, Table 4, Staphylococcus aureus MS 353, read-out: minimum inhibition concentration (MIC)
[13] = IFO3848, Table 2, Proteus morganii IFO-3848, read-out: minimum inhibition concentration (MIC)

Q: For Nc1nc(C(=CI)C(=O)NC2C(=O)N3C(C(=O)O)=C(CSc4nncs4)CS[C@H]23)cs1 (single isomer, unassigned) [Example 37, 7-[2-Iodomethylene-2-(2-aminothiazol-4-yl)acetamido]-3-(1,3,4-thiadiazol-2-yl)thiomethyl-3-cephem-4-carboxylic acid], which MIC [1, 10] is on record?
A: The MIC was ≤ 0.00313 µg/mL.

Q: What about the MIC [2, 11] of the same compound?
A: The MIC was 0.39 µg/mL (≈ 0.641 µM).

Q: What about the MIC [3, 12] of the same compound?
A: The MIC was 0.2 µg/mL (≈ 0.329 µM).

Q: What does the source list for Nc1nc(C(=CCl)C(=O)NC2C(=O)N3C(C(=O)O)=C(CSc4nnnn4CCO)CSC23)cs1 (single isomer, unassigned) [Example 31]?
A: MIC [1, 10]: ≤ 0.00625 µg/mL; MIC [2, 11]: 0.39 µg/mL (≈ 0.716 µM); MIC [3, 12]: 0.78 µg/mL (≈ 1.43 µM)

Q: What does the source list for Cn1ncc(=O)nc1SCC1=C(C(=O)O)N2C(=O)C(NC(=O)C(=CCl)c3csc(N)n3)C2SC1 (single isomer, unassigned) [Example 36, sodium 7-[2-chloromethylene-2-(2-aminothiazol-4-yl)acetamido]-3-(2-dihydro-2-methyl-5-oxo-as-triazine-3-yl)thiomethyl-3-cephem-4-carboxylate]?
A: MIC [1, 10]: ≤ 0.00625 µg/mL; MIC [2, 11]: 0.39 µg/mL; MIC [3, 12]: 0.39 µg/mL

Q: How did the “minimum inhibition concentration (MIC)” value ([1]; Table 4, Proteus morganii IFO 3848) turn out when “sodium 7-[2-chloromethylene-2-(2-aminothiazol-4-yl)-acetamido]-3-(2-hydroxycarbonylmethylthio-1,3,4-thiadia- zol-5-yl)thiomethyl-3-cephem-4-carboxylate [Example 35]” was run?
A: Its value is ≤0.00625 µg/mL.

Q: And the “minimum inhibition concentration (MIC)” value ([2]; Table 4, Salmonella typhimrium 901)?
A: The value was 0.78 µg/mL.

Q: What about the “minimum inhibition concentration (MIC)” value ([3]; Table 4, Staphylococcus aureus MS 353) of the same compound?
A: The value was 0.78 µg/mL.

Q: For N#CCn1nnnc1SCC1=C(C(=O)O)N2C(=O)C(NC(=O)C(=CCl)c3csc(N)n3)C2SC1 (single isomer, unassigned) [Example 32, sodiun 7-[2-chloromethylene-2-(2-aminothiazol-4-yl)acetamido]-3-(l-cyanomethyl-l,2,3,4-tetrazol-5-yl)thiomethyl-3-cephem-4-carboxylate], which MIC [1, 10] is on record?
A: Its MIC is 0.0125 µg/mL (≈ 0.0231 µM).

Q: And the MIC [2, 11]?
A: Its MIC is 0.78 µg/mL (≈ 1.44 µM).

Q: What about the MIC [3, 12] of the same compound?
A: The MIC was 1.56 µg/mL (≈ 2.89 µM).

Q: Nc1nc(C(=CCl)C(=O)NC2C(=O)N3C(C(=O)O)=C(CSc4cnn[nH]4)CSC23)cs1 (single isomer, unassigned) [Example 34, sodium7-[2-chloramethylene-2-(2-aminothiazol-4-yl)acetamido]-3-(l,2,3-triazol-5-yl)thiomethyl-3-cephem-4-carboxylate] was tested. Which MIC [1, 10] did it give?
A: Its MIC is 0.0125 µg/mL.

Q: What about the MIC [2, 11] of the same compound?
A: The MIC was 0.78 µg/mL.

Q: And the MIC [3, 12]?
A: Its MIC is 0.78 µg/mL.

Q: Which MIC ([1]; IFO3848, read-out: minimum inhibition concentration (MIC)) does the source give for CC1(C)S[C@@H]2C(NC(=O)C(=CCl)c3csc(N)n3)C(=O)N2[C@H]1C(=O)[O-].[Na+] (single isomer, unassigned) [Example 38, Sodium 6-[2-chloromethylene-2-(2-aminothiazol-4-yl)acetamido]penicillanate] here?
A: Its MIC is 0.05 µg/mL.

Q: What about the MIC ([2]; Salmonella, 901, read-out: minimum inhibition concentration (MIC)) of the same compound?
A: The MIC was 3.12 µg/mL.

Q: And the MIC ([3]; MS353, read-out: minimum inhibition concentration (MIC))?
A: Its MIC is 0.2 µg/mL.

Q: For Nc1nc(C(=CCl)C(=O)NC2C(=O)N3C(C(=O)O)=C(CSc4cnns4)CSC23)cs1 (single isomer, unassigned) [Example 33, sodium 7-[2-chloromethylene-2-(2-aminothiazol-4-yl)acetamido]-3-(1,2,3-thiadiazol-5-yl)thiomethyl-3-cephem-4-carboxylate], which MIC [1, 10] is on record?
A: Its MIC is ≤ 0.00625 µg/mL.

Q: And the MIC [2, 11]?
A: The MIC was 0.2 µg/mL.

Q: And the MIC [3, 12]?
A: Its MIC is 0.1 µg/mL.

Q: CC(=O)OCC1=C(C(=O)O)N2C(=O)C(NC(=O)C(=CCl)c3csc(N)n3)C2SC1 (single isomer, unassigned) [Example 28, sodium 7-[2-chloromethylene-2-(2-aminothiazol-4-yl)-acetamido]-3-acetoxymethyl-3-cephem-4-carboxylate] was tested. Which MIC ([4]; NIHJJC2, Table 3) did it give?
A: The MIC was 0.1 µg/mL.

Q: What about the MIC [5] of the same compound?
A: The MIC was 0.05 µg/mL.

Q: What about the MIC [6] of the same compound?
A: The MIC was 0.2 µg/mL.

Q: What about the MIC [7] of the same compound?
A: The MIC was 12.5 µg/mL.

Q: And the MIC ([8]; FDA209, Table 3)?
A: Its MIC is 12.5 µg/mL.

Q: Which MIC ([4]; NIHJJC2, Table 2) does the source give for Cc1nnc(SCC2=C(C(=O)O)N3C(=O)C(NC(=O)C(=CBr)c4csc(N)n4)C3SC2)s1 (stereo not drawn) [Example 26, 7-[2-Bromomethylene-2-(2-aminothiazol-4-yl)acetamido]-3-(2-methyl-1,3,4-thiadiazol-5-yl)thiomethy1-3-cephem-4-carboxylic acid] here?
A: The MIC was 0.1 µg/mL (≈ 0.174 µM).

Q: And the MIC [1, 13]?
A: The MIC was ≤ 0.0063 µg/mL.

Q: And the MIC [9]?
A: The MIC was 0.39 µg/mL (≈ 0.678 µM).

Q: And the MIC ([8]; FDA209, Table 2)?
A: The MIC was 0.39 µg/mL (≈ 0.678 µM).

Q: What does the source list for Nc1nc(C(=CBr)C(=O)NC2C(=O)N3C(C(=O)O)=C(CSc4nncs4)CS[C@H]23)cs1 (stereo partly drawn) [Example 25, 7-[2-Bromomethylene-2-(2-aminothiazol-4-yl)acetamido]-3-(1,3,4-thiadiazol-2-yl)thiomethyl-3-cephem-4-carboxylic acid]?
A: MIC ([4]; NIHJJC2, Table 2): 0.1 µg/mL (≈ 0.178 µM); MIC [1, 13]: ≤ 0.0063 µg/mL; MIC [9]: 0.2 µg/mL (≈ 0.356 µM); MIC ([8]; FDA209, Table 2): 0.2 µg/mL (≈ 0.356 µM)

Q: Which results are given for Cn1nnnc1SCC1=C(C(=O)O)N2C(=O)C(NC(=O)C(=CCl)c3csc(N)n3)C2SC1 (single isomer, unassigned) [Example 27, sodium 7-[2-chloromethylene-2-(2-aminothiazol-4-yl)acetamido]-3-(1-methyl-1H-tetrazol-5-yl)thiomethyl-3-cephem-4-carboxylate]?
A: MIC ([4]; NIHJJC2, Table 3): 0.2 µg/mL; MIC [5]: < 0.00625 µg/mL; MIC [6]: 0.2 µg/mL; MIC [7]: 0.78 µg/mL; MIC ([8]; FDA209, Table 3): 0.78 µg/mL

Q: How did the MIC ([4]; NIHJJC2, Table 2) turn out when CCSc1nnc(SCC2=C(C(=O)O)N3C(=O)C(NC(=O)C(=CCl)c4csc(N)n4)C3SC2)s1 (single isomer, unassigned) [Example 22, 7-[2-Chloromethylene-2-(2-aminothiazol-4-yl)acetamido]-3-(2-ethylthio-l,3,4-thiadiazol-5-yl)thiomethyl-3-cephem-4-carboxylic acid hydrochloride] was run?
A: Its MIC is 0.2 µg/mL.

Q: What about the MIC [1, 13] of the same compound?
A: The MIC was ≤ 0.0063 µg/mL.

Q: What about the MIC [9] of the same compound?
A: Its MIC is 1.56 µg/mL.

Q: What about the MIC ([8]; FDA209, Table 2) of the same compound?
A: The MIC was 0.2 µg/mL.

Q: Which results are given for COC(=O)Cn1nnnc1SCC1=C(C(=O)O)N2C(=O)C(NC(=O)C(=CCl)c3csc(N)n3)C2SC1 (single isomer, unassigned) [Example 30, disodium 7-[2-chloromethylene-2-(2-aminothiazol-4-yl)acetamido]-3-(l-methoxycarbonylmethyl-1,2,3,4-tetrazol-5-yl)thiomethyl-3-cephem-4-carboxylate]?
A: MIC [2, 11]: 0.2 µg/mL; MIC [3, 12]: 0.78 µg/mL
